Biological target: T1, PKCε (Homo sapiens, UniProt Q02156)
T1 sequence (Q02156 1-737): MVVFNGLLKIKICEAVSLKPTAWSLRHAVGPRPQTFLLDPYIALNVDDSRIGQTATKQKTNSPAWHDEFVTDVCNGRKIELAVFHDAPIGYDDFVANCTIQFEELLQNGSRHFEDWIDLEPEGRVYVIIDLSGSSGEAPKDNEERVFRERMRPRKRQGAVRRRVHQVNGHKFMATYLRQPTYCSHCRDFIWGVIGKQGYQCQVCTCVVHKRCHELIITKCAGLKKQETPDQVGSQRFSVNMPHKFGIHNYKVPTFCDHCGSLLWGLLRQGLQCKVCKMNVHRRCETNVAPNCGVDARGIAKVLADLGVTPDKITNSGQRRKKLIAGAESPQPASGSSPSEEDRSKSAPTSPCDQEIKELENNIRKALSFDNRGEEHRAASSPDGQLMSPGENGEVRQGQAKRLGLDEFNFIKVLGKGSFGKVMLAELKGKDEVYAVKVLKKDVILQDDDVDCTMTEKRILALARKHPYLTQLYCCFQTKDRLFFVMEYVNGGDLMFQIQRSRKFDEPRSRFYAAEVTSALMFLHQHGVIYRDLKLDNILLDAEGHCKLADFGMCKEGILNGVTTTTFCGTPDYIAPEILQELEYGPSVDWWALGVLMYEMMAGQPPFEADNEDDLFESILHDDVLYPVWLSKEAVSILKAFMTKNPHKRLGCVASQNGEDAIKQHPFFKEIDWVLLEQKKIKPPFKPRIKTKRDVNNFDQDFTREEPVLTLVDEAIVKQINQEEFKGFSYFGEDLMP
Assay: SPR
Type: binding

Kd: 44.8 µM
Compound: COc1cccc2c1C(=O)c1c(O)c3c(c(O)c1C2=O)C[C@@](O)(C(=O)CO)C[C@@H]3O[C@H]1C[C@H](N)[C@H](O)[C@H](C)O1 [Dox, Doxorubicin]

From article PMC10173194 (Journal of Advanced Research, 2022)
